Laboratory results: patent US8192962B2, “Processes for detecting toxic substances” (Daikin Industries, Ltd., priority 2001, dated 2012)

Tested on: Detoxification protein genes
Experiment: DNA chip mRNA expression in yeast, detoxification protein genes (Table 8)
Type: cell-based, Saccharomyces cerevisiae S288C
Procedure, shortened: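 First, S288C yeast grown in YPD at 25° C. are dosed in log phase with one toxicant (growth-inhibiting, not lethal) for 2 h. Next, total RNA is extracted and poly(A) mRNA isolated and reverse-transcribed with Cy3/Cy5-dUTP. Finally, whole-genome chip fluorescence is read relative to unexposed cells.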

Structure (SMILES): O=[N+]([O-])c1cc[n+]([O-])c2ccccc12 [(5), 4-nitroquinolin-N-oxide]
- The level of expressed mRNA in the presence of chemical substance/The level of expressed mRNA in the absence of chemical substance (yeast gene YBL064C): 0.8
- The level of expressed mRNA in the presence of chemical substance/The level of expressed mRNA in the absence of chemical substance (yeast gene YBR008C): 0.9
- The level of expressed mRNA in the presence of chemical substance/The level of expressed mRNA in the absence of chemical substance (yeast gene YBR145W): 1.1
- The level of expressed mRNA in the presence of chemical substance/The level of expressed mRNA in the absence of chemical substance (yeast gene YBR244W): 1.7
- The level of expressed mRNA in the presence of chemical substance/The level of expressed mRNA in the absence of chemical substance (yeast gene YBR293W): 0.8
- The level of expressed mRNA in the presence of chemical substance/The level of expressed mRNA in the absence of chemical substance (yeast gene YCL035C): 1.5
- The level of expressed mRNA in the presence of chemical substance/The level of expressed mRNA in the absence of chemical substance (yeast gene YCL069W): 0.9
- The level of expressed mRNA in the presence of chemical substance/The level of expressed mRNA in the absence of chemical substance (yeast gene YCR083W): 1.6
- The level of expressed mRNA in the presence of chemical substance/The level of expressed mRNA in the absence of chemical substance (yeast gene YDL100C): 1.0
- The level of expressed mRNA in the presence of chemical substance/The level of expressed mRNA in the absence of chemical substance (yeast gene YDL168W): 1.2
- The level of expressed mRNA in the presence of chemical substance/The level of expressed mRNA in the absence of chemical substance (yeast gene YDR256C): 1.2
- The level of expressed mRNA in the presence of chemical substance/The level of expressed mRNA in the absence of chemical substance (yeast gene YDR453C): 0.7
- The level of expressed mRNA in the presence of chemical substance/The level of expressed mRNA in the absence of chemical substance (yeast gene YDR513W): 0.9
- The level of expressed mRNA in the presence of chemical substance/The level of expressed mRNA in the absence of chemical substance (yeast gene YDR538W): 1.0
- The level of expressed mRNA in the presence of chemical substance/The level of expressed mRNA in the absence of chemical substance (yeast gene YEL027W): 1.0
- The level of expressed mRNA in the presence of chemical substance/The level of expressed mRNA in the absence of chemical substance (yeast gene YEL065W): 1.4
- The level of expressed mRNA in the presence of chemical substance/The level of expressed mRNA in the absence of chemical substance (yeast gene YER185W): 1.6
- The level of expressed mRNA in the presence of chemical substance/The level of expressed mRNA in the absence of chemical substance (yeast gene YFL050C): 1.0
- The level of expressed mRNA in the presence of chemical substance/The level of expressed mRNA in the absence of chemical substance (yeast gene YGL013C): 1.1
- The level of expressed mRNA in the presence of chemical substance/The level of expressed mRNA in the absence of chemical substance (yeast gene YGL254W): 1.1
- The level of expressed mRNA in the presence of chemical substance/The level of expressed mRNA in the absence of chemical substance (yeast gene YGR088W): 1.0
- The level of expressed mRNA in the presence of chemical substance/The level of expressed mRNA in the absence of chemical substance (yeast gene YGR138C): 0.8
- The level of expressed mRNA in the presence of chemical substance/The level of expressed mRNA in the absence of chemical substance (yeast gene YGR197C): 0.7
- The level of expressed mRNA in the presence of chemical substance/The level of expressed mRNA in the absence of chemical substance (yeast gene YGR209C): 1.9
- The level of expressed mRNA in the presence of chemical substance/The level of expressed mRNA in the absence of chemical substance (yeast gene YGR224W): 1.4
- The level of expressed mRNA in the presence of chemical substance/The level of expressed mRNA in the absence of chemical substance (yeast gene YHL040C): 1.1
- The level of expressed mRNA in the presence of chemical substance/The level of expressed mRNA in the absence of chemical substance (yeast gene YHL047C): 1.2
- The level of expressed mRNA in the presence of chemical substance/The level of expressed mRNA in the absence of chemical substance (yeast gene YHR008C): 0.6
- The level of expressed mRNA in the presence of chemical substance/The level of expressed mRNA in the absence of chemical substance (yeast gene YHR048W): 1.0
- The level of expressed mRNA in the presence of chemical substance/The level of expressed mRNA in the absence of chemical substance (yeast gene YHR053C): 2.9
- The level of expressed mRNA in the presence of chemical substance/The level of expressed mRNA in the absence of chemical substance (yeast gene YHR055C): 2.7
- The level of expressed mRNA in the presence of chemical substance/The level of expressed mRNA in the absence of chemical substance (yeast gene YIR002C): 1.2
- The level of expressed mRNA in the presence of chemical substance/The level of expressed mRNA in the absence of chemical substance (yeast gene YIR038C): 0.7
- The level of expressed mRNA in the presence of chemical substance/The level of expressed mRNA in the absence of chemical substance (yeast gene YJL101C): 1.4
- The level of expressed mRNA in the presence of chemical substance/The level of expressed mRNA in the absence of chemical substance (yeast gene YJR104C): 1.5
- The level of expressed mRNA in the presence of chemical substance/The level of expressed mRNA in the absence of chemical substance (yeast gene YKL026C): 1.0
- The level of expressed mRNA in the presence of chemical substance/The level of expressed mRNA in the absence of chemical substance (yeast gene YKL064W): 1.2
- The level of expressed mRNA in the presence of chemical substance/The level of expressed mRNA in the absence of chemical substance (yeast gene YKR066C): 1.0
- The level of expressed mRNA in the presence of chemical substance/The level of expressed mRNA in the absence of chemical substance (yeast gene YKR105C): 1.0
- The level of expressed mRNA in the presence of chemical substance/The level of expressed mRNA in the absence of chemical substance (yeast gene YKR106W): 1.2
- The level of expressed mRNA in the presence of chemical substance/The level of expressed mRNA in the absence of chemical substance (yeast gene YLL028W): 0.9
- The level of expressed mRNA in the presence of chemical substance/The level of expressed mRNA in the absence of chemical substance (yeast gene YLL057C): 1.1
- The level of expressed mRNA in the presence of chemical substance/The level of expressed mRNA in the absence of chemical substance (yeast gene YLL060C): 0.9
- The level of expressed mRNA in the presence of chemical substance/The level of expressed mRNA in the absence of chemical substance (yeast gene YLR043C): 2.0
- The level of expressed mRNA in the presence of chemical substance/The level of expressed mRNA in the absence of chemical substance (yeast gene YLR046C): 1.0
- The level of expressed mRNA in the presence of chemical substance/The level of expressed mRNA in the absence of chemical substance (yeast gene YML028W): 1.6
- The level of expressed mRNA in the presence of chemical substance/The level of expressed mRNA in the absence of chemical substance (yeast gene YML116W): 1.2
- The level of expressed mRNA in the presence of chemical substance/The level of expressed mRNA in the absence of chemical substance (yeast gene YMR015C): 1.7
- The level of expressed mRNA in the presence of chemical substance/The level of expressed mRNA in the absence of chemical substance (yeast gene YMR038C): 1.5
- The level of expressed mRNA in the presence of chemical substance/The level of expressed mRNA in the absence of chemical substance (yeast gene YNL239W): 1.2
- The level of expressed mRNA in the presence of chemical substance/The level of expressed mRNA in the absence of chemical substance (yeast gene YNL241C): 0.8
- The level of expressed mRNA in the presence of chemical substance/The level of expressed mRNA in the absence of chemical substance (yeast gene YNL259C): 1.1
- The level of expressed mRNA in the presence of chemical substance/The level of expressed mRNA in the absence of chemical substance (yeast gene YOL158C): 1.2
- The level of expressed mRNA in the presence of chemical substance/The level of expressed mRNA in the absence of chemical substance (yeast gene YOR031W): 1.4
- The level of expressed mRNA in the presence of chemical substance/The level of expressed mRNA in the absence of chemical substance (yeast gene YOR153W): 1.0
- The level of expressed mRNA in the presence of chemical substance/The level of expressed mRNA in the absence of chemical substance (yeast gene YOR247W): 0.6
- The level of expressed mRNA in the presence of chemical substance/The level of expressed mRNA in the absence of chemical substance (yeast gene YOR251C): 0.8
- The level of expressed mRNA in the presence of chemical substance/The level of expressed mRNA in the absence of chemical substance (yeast gene YOR273C): 1.1
- The level of expressed mRNA in the presence of chemical substance/The level of expressed mRNA in the absence of chemical substance (yeast gene YPL163C): 0.6
- The level of expressed mRNA in the presence of chemical substance/The level of expressed mRNA in the absence of chemical substance (yeast gene YPR200C): 1.6
